Literature values in US7825150B2, “Compositions and methods for treating immunological and inflammatory diseases and disorders” (Lexicon Pharmaceuticals, Inc., priority 2007, dated 2010).
Read-outs that look alike come from different tables or passages of the source.

How the values were obtained:
[1] = test system: adjuvant-induced arthritis (AA) model; settings: therapeutic setting, established disease state; majority of published studies
S1P lyase = biological target: T1, S1P lyase (Mus musculus, UniProt Q8R0X7); settings: administered to mice; Schwab et al. 2005
T1 construct: host or cells: mice, in vivo (endogenous enzyme)
T1 sequence (Q8R0X7 1-568): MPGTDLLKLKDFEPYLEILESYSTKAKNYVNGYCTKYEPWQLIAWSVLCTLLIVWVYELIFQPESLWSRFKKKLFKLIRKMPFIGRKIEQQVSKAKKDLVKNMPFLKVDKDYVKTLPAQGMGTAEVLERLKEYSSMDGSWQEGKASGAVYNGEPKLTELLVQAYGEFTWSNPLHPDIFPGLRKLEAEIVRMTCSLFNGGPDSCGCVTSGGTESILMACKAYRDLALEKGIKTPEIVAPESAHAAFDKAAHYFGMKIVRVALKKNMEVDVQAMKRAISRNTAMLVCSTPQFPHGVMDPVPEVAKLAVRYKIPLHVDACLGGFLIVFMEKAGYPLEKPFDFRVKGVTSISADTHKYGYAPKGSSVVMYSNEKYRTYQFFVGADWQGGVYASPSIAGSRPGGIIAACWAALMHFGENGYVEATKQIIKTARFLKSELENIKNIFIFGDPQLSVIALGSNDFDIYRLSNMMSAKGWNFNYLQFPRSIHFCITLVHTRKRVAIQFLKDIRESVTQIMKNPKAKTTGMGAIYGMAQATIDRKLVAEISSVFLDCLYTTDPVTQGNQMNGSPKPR

lymphocytes [2] = settings: administration to rats
lymphocytes [3] = settings: administration to mice
[4] = humans

Row | Structure (SMILES) | effectiveness of MTX treatment alone in this model [1] | S1P lyase activity (S1P lyase) | accumulation of mature T cells in the thymus (lymphocytes [2]) | lymphopenia (lymphocytes [2]) | accumulation of mature T cells in the thymus (lymphocytes [3]) | lymphopenia (lymphocytes [3]) | immunological effects [4]
1 | CN(Cc1cnc2nc(N)nc(N)c2n1)c1ccc(C(=O)N[C@@H](CCC(=O)O)C(=O)O)cc1 [MTX, methotrexate] | not effective |  |  |  |  |  | 
2 | CC(=O)c1nc(C(O)C(O)C(O)CO)c[nH]1 (stereo not shown) [THI, 2-acetyl-4-tetrahydroxybutylimidazole] |  | inhibits S1P lyase activity | causes the accumulation of mature T cells in the thymus | induces lymphopenia | causes the accumulation of mature T cells in the thymus | induces lymphopenia | no immunological effects
